By Kd is commonly meant the constant that tells how readily two partners part at equilibrium. Lower therefore signals a tighter complex. For orientation: inhibition means the drop in the measured response relative to a control, in per cent. For orientation: IC50 means the concentration that inhibits the measured activity by half.

For assay [1], the target named is human RORγt ligand binding domain (RORγt LBD) (Homo sapiens (Human), UniProt P51449). Description: RORγt ThermoFluor assay. The text has this: ThermoFluor® is a fluorescence based assay that estimates ligand binding affinities by measuring the effect of a ligand on protein thermal stability (Pantoliano, M. W., Petrella, E. C., Kwasnoski, J. D., Lobanov, V. S., Myslik, J., Graf, E., Carver, T., Asel, E., Springer, B. A., Lane, P., and Salemme, F. R. (2001) High-density miniaturized thermal shift assays as a general strategy for drug discovery. J Biomol Screen 6, 429-40, and Matulis, D., Kranz, J. K., Salemme, F. R., and Todd, M. J. (2005) Thermodynamic stability of carbonic anhydrase: measurements of binding affinity and stoichiometry using ThermoFluor. Biochemistry 44, 5258-66). This approach is applicable to a wide variety of systems, and rigorous in theoretical interpretation through quantitation of equilibrium binding constants (KD).
The shift in the melting point described as a ΔTm is proportional to the concentration and affinity of the ligand.
RORγt ThermoFluor® Assay Construct
Nucleotides 850-1635 (SEQ ID NO:2) coding for the wild type human RORγt ligand binding domain (RORγt LBD) were cloned into the pHIS 1 vector, a modified pET E. coli expression vector (Accelagen, San Diego), containing an in-frame N-terminal His-tag and a TurboTEV protease cleavage site (ENLYFQG, SEQ ID NO:3) upstream of the cloned insert sequence. The amino acid sequence for the RORγt construct used in the Thermofluor® assay is shown as SEQ ID NO:4.
ThermoFluor® experiments were carried out using instruments owned by Janssen Research and Development, L.L.C. through its acquisition of 3-Dimensional Pharmaceuticals, Inc. 1,8-ANS (Invitrogen) was used as a fluorescent dye. Protein and compound solutions are dispensed into black 384-well polypropylene PCR microplates (Abgene) and overlayed with silicone oil (1 μL, Fluka, type DC 200) to prevent evaporation.
Bar-coded assay plates are robotically loaded onto a thermostatically controlled PCR-type thermal block and then heated at a typical ramp-rate of 1° C./min for all experiments. Fluorescence was measured by continuous illumination with UV light (Hamamatsu LC6) supplied via fiber optic and filtered through a band-pass filter (380-400 nm; >6 OD cutoff). Fluorescence emission of the entire 384-well plate was detected by measuring light intensity using a CCD camera (Sensys, Roper Scientific) filtered to detect 500±25 nm, resulting in simultaneous and independent readings of all 384 wells. Images were collected at each temperature, and the sum of the pixel intensity in a given area of the assay plate was recorded versus temperature. Reference wells contained RORγt without compounds, and the assay conditions were as follows: • 0.065 mg/mL RORγt • 60 μM 1,8-ANS • 100 mM Hepes, pH 7.0 • 10 mM NaCl • 2.5 mM GSH • 0.002% Tween-20
Project compounds were arranged in a pre-dosed mother plate (Greiner Bio-one) wherein compounds are serially diluted in 100% DMSO by 1:2 from a high concentration of 10 mM over 12 columns within a series (column 12 is a reference well containing DMSO, no compound). The compounds were robotically dispensed directly into assay plates (1×=46 nL) using a Hummingbird capillary liquid handling instrument (Digilab). Following compound dispense, protein and dye in buffer was added to achieve the final assay volume of 3 μL, followed by 1 μL of silicone oil.
The binding affinity was estimated as described previously (Matulis, D., Kranz, J. K., Salemme, F. R., and Todd, M. J. (2005) Thermodynamic stability of carbonic anhydrase: measurements of binding affinity and stoichiometry using ThermoFluor®. Biochemistry 44, 5258-66) using the following thermodynamic parameters of protein unfolding: […]
A general note: Differential scanning fluorimetry follows unfolding on heating by fluorescence.

A further assay deals with full-length human RORγt (Homo sapiens (Human), UniProt P51449). The assay can be described thus: RORγt (full-length human) reporter assay, conditions A or B. The assay is classed as cell-based. Conditions: for inhibition at 2 µM: 2 μM compound concentration (**); for IC50: HEK293T cells, read-out: RORγt (FL) Reporter Assay A or B, IC50; for inhibition at 3 µM: 3 μM compound concentration (*). The text has this:
RORγt (Full-Length Human) Reporter Assay:
Cells used in this assay were transiently co-transfected with three different plasmids, one expressing the GAL4-DNA binding domain (DBD)-RORγt fusion protein under control of a CMV promoter (NH2-Gal4-DBD:RORC—COOH in pCMV-BD, Stratagene #211342), and two reporter plasmids—the firefly luciferase reporter under control of a GAL4 promoter (pFR-Luc 2×GAL4) and Renilla luciferase reporter under control of CMV promoter (pRL-CMV, Promega #E2261). […] HEK293T cells were plated at 35,000 per well in 96-well plate in medium of DMEM with 10% FBS. After 18-22 hours incubation, the transfection was carried out by using a PEI solution with 170.5 ng total DNA/well (50 ng pCMV-BD-ROR plus 20 ng of pFR-Luc reporter and 0.5 ng of pRL-CMV reporter plus 100 ng Carrier DNA (Clontech #630440) for each well). 4-6 hours after transfection, cells were treated with compounds for overnight in the medium with final concentration of FBS 1.3% and DMSO 0.1%. After overnight (16 to 20 hours) incubation, media were removed and cells were lysed with […] Glo Lysis Buffer (Promega) for 10-15 minutes followed by 10 minute incubation with 50 μL Dual Glo reagent (Promega) at room temperature. Firefly luciferase luminescence was measured using a BMG Pherastar plate reader. To each well, 50 μL Stop and Glo reagent was added and incubated for 10 minutes at room temperature. Renilla luminescence was measured using a BMG Pherastar plate reader. To calculate the effect of compounds on RORγt activity, firefly values were normalized against values of DMSO only and values of reference compound at saturating concentration, then further normalized against Renilla signals. IC50s were generated by plotting final Renilla normalized data against compound concentration and percent inhibition was calculated against DMSO control.
Cells used in this assay were transiently co-transfected with three different plasmids, one expressing the GAL4-DNA binding domain (DBD)-RORγt fusion protein under control of a CMV promoter (NH2-Gal4-DBD:RORC—COOH in pCMV-BD, Stratagene #211342), and two reporter plasmids—the firefly luciferase reporter under control of a GAL4 promoter (pFR-Luc 2×GAL4) and Renilla luciferase reporter under control of CMV promoter (pRL-CMV, Promega #E2261). […] HEK293T cells were plated at 8750 cells per well in 384-well plate in medium of DMEM with 10% FBS. After 18-22 hours incubation, the transfection was carried out by using a PEI solution with 42.6 ng total DNA/well (12.5 ng pCMV-BD-ROR plus 5 ng of pFR-Luc reporter and 0.125 ng of pRL-CMV reporter plus 25 ng Carrier DNA (Clontech #630440) for each well). 4-6 hours after transfection, cells were treated with compounds for overnight in the medium with final concentration of FBS 1.3% and DMSO 0.1%. After overnight (16 to 20 hours) incubation, media were removed and cells were lysed with 20 μL Glo Lysis Buffer (Promega) for 10-15 minutes followed by 10 minute incubation with 20 μL Dual Glo reagent (Promega) at room temperature. Firefly luciferase luminescence was measured using a BMG Pherastar plate reader. To each well, 20 μL Stop and Glo reagent was added and incubated for 10 minutes at room temperature. Renilla luminescence was measured using a BMG Pherastar plate reader. To calculate the effect of compounds on RORγt activity, firefly values were normalized against values of DMSO only and values of reference compound at saturating concentration, then further normalized against Renilla signals. IC50s were generated by plotting final Renilla normalized data against compound concentration and percent inhibition was calculated against DMSO control.
Background: Reporter assays use an easily measured gene product as a stand-in for the process of interest.

The mark [2] stands for this setting: read-out: RORγt (FL) Reporter Assay A or B, % inhibition.

Sequence of full-length human RORγt (P51449 other isoform, or with tags, fused parts or gaps): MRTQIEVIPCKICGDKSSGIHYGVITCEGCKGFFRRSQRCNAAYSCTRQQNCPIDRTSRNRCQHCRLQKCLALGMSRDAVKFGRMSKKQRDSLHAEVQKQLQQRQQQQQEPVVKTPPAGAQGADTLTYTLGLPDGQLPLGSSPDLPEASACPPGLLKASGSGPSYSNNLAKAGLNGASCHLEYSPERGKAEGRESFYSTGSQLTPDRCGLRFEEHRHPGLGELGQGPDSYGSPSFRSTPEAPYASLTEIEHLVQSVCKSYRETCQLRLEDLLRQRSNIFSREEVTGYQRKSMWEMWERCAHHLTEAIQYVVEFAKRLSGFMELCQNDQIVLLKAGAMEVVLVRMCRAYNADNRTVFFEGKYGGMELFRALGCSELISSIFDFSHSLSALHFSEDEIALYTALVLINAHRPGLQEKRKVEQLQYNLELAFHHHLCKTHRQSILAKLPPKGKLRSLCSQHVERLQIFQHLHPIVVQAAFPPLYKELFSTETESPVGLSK
Sequence of human RORγt ligand binding domain (RORγt LBD) (P51449 other isoform, or with tags, fused parts or gaps): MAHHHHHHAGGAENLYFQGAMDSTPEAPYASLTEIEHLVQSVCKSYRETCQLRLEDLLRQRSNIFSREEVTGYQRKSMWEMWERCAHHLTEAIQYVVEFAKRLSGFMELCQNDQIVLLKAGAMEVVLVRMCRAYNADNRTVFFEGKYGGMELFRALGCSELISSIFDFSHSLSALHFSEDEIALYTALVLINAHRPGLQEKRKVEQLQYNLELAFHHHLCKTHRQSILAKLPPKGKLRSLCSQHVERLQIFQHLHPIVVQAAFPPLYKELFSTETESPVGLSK

In assay [1], `[2H]C([2H])([2H])Oc1cc(CC(C)(C)C(F)(F)F)ccc1-n1c(CC)nc(C(=O)NC[C@]2(O)CC[C@@H](S(C)(=O)=O)CC2)c1F` [Example 32, 2-Ethyl-5-fluoro-N-(((1s,4s)-1-hydroxy-4-(methylsulfonyl)cyclohexyl)methyl)-1-(2-(methoxy-d3)-4-(3,3,3-trifluoro-2,2-dimethylpropyl)phenyl)-1H-imidazole-4-carboxamide] came in with a Kd of 12 nM. Besides, the inhibition at 2 µM on full-length human RORγt (setting [2]) came to 99%. Also, the IC50 at full-length human RORγt came to 71 nM.
The like results for `CCc1nc(C(=O)NC[C@]2(O)CC[C@@H](S(C)(=O)=O)CC2)cn1-c1ccc(C[C@H](C)C(F)(F)F)cc1OC` (single isomer, unassigned) [Example 19, 2-Ethyl-N-(((1s,4R)-1-hydroxy-4-(methylsulfonyl)cyclohexyl)methyl)-1-(2-methoxy-4-((S*)-3,3,3-trifluoro-2-methylpropyl)phenyl)-1H-imidazole-4-carboxamide] were, in that order, 50 nM, 80% and 360 nM.
`CCc1nc(C(=O)NC[C@H]2CC[C@H](S(C)(=O)=O)CC2)c(C)n1-c1ccc(CC(C(F)(F)F)C(F)(F)F)cc1F` [Example 110, 2-Ethyl-1-(2-fluoro-4-(3,3,3-trifluoro-2-(trifluoromethyl)propyl)phenyl)-5-methyl-N-(((r,4r)-4-(methylsulfonyl)cyclohexyl)methyl)-1H-imidazole-4-carboxamide] gave a Kd in assay [1] of 3.3 nM. Further, the inhibition at 0.07 µM at full-length human RORγt (0.07 μM compound concentration (*******), read-out: RORγt (FL) Reporter Assay A or B, % inhibition) is 90%. The IC50 at full-length human RORγt is 1.8 nM.
Compound `CCc1nc(C(=O)NC[C@H]2CC[C@H](S(C)(=O)=O)CC2)c(Cl)n1-c1c(F)cc(CC(C)C(F)(F)F)cc1F` (stereo partly drawn) [Example 85, 5-Chloro-1-(2,6-difluoro-4-(3,3,3-trifluoro-2-methylpropyl)phenyl)-2-ethyl-N-(((1r,4r)-4-(methylsulfonyl)cyclohexyl)methyl)-1H-imidazole-4-carboxamide] yielded a Kd in assay [1] of 8.2 nM. Also, the inhibition at 0.22 µM on full-length human RORγt (0.22 μM compound concentration (******), read-out: RORγt (FL) Reporter Assay A or B, % inhibition) is 63%. The IC50 at full-length human RORγt was 23 nM.
As for `Cc1nc(C(=O)NC[C@]2(O)CC[C@@H](S(C)(=O)=O)CC2)cn1-c1ccc(CC(C)(C)C(F)(F)F)cc1OC(F)F` [Example 132, 1-(2-(Difluoromethoxy)-4-(3,3,3-trifluoro-2,2-dimethylpropyl)phenyl)-N-(((1s,4s)-1-hydroxy-4-(methylsulfonyl)cyclohexyl)methyl)-2-methyl-1H-imidazole-4-carboxamide], the Kd in assay [1] amounted to 340 nM. At full-length human RORγt (setting [2]), the inhibition at 3 µM turned out to be 87%. The IC50 on full-length human RORγt came to 800 nM.
The compound `CCc1cc(CC(C)(C)C(F)(F)F)cnc1-n1c(CC)nc(C(=O)NC[C@H]2CC[C@H](S(C)(=O)=O)CC2)c1Cl` [Example 75, 5-Chloro-2-ethyl-1-(3-ethyl-5-(3,3,3-trifluoro-2,2-dimethylpropyl)pyridin-2-yl)-N-(((1r,4r)-4-(methylsulfonyl)cyclohexyl)methyl)-1H-imidazole-4-carboxamide] returned a Kd in assay [1] of 8.3 nM. Further, the inhibition at 3 µM at full-length human RORγt (setting [2]) worked out at 110%. The IC50 at full-length human RORγt worked out at 59 nM.
In turn, `CCc1nc(C(=O)NC[C@]2(O)CC[C@@H](S(C)(=O)=O)CC2)c(C)n1-c1ncc(CC(C(F)(F)F)C(F)(F)F)cc1OC(F)F` [Example 76, 1-(3-(Difluoromethoxy)-5-(3,3,3-trifluoro-2-(trifluoromethyl)propyl)pyridin-2-yl)-2-ethyl-N-(((1s,4s)-1-hydroxy-4-(methylsulfonyl)cyclohexyl)methyl)-5-methyl-1H-imidazole-4-carboxamide] gave a Kd in assay [1] of 110 nM. At full-length human RORγt (setting [2]), the inhibition at 3 µM was 76%. Further, the IC50 at full-length human RORγt is 440 nM.
Take `CCc1nc(C(=O)NC[C@]2(O)CC[C@@H](S(C)(=O)=O)CC2)c(C)n1-c1ccc(CC(C)(C)C(F)(F)F)c(OC)c1` [Example 45, 2-Ethyl-N-(((1s,4s)-1-hydroxy-4-(methylsulfonyl)cyclohexyl)methyl)-1-(3-methoxy-4-(3,3,3-trifluoro-2,2-dimethylpropyl)phenyl)-5-methyl-1H-imidazole-4-carboxamide]: in assay [1], the Kd came to 7.7 nM. The inhibition at 0.67 µM at full-length human RORγt (0.67 μM compound concentration (****), read-out: RORγt (FL) Reporter Assay A or B, % inhibition) was 77%. In addition, on full-length human RORγt, the half-inhibitory concentration (IC50) came to 11 nM.
`CCc1nc(C(=O)NC[C@]2(O)CC[C@@H](S(C)(=O)=O)CC2)c(F)n1-c1ccc(CC(C)(C)C(F)(F)F)cc1OC(F)F` [Example 35, 1-(2-(Difluoromethoxy)-4-(3,3,3-trifluoro-2,2-dimethylpropyl)phenyl)-2-ethyl-5-fluoro-N-(((1s,4s)-1-hydroxy-4-(methylsulfonyl)cyclohexyl)methyl)-1H-imidazole-4-carboxamide] returned a Kd in assay [1] of 11 nM. The IC50 at full-length human RORγt was 28 nM. In addition, at full-length human RORγt (read-out: RORγt (FL) Reporter Assay A or B, % inhibition @ 6 μM, 6 μM compound concentration), the inhibition at 6 µM was determined as 97%.
